Earlier results, collected in patent US20020086070A1, “Anti-inflammatory and connective tissue repair formulations” (priority 2000, published 2002).

Key:
COX-2 over COX-1 = details: specificity for COX-2 over COX-1
[1] = tested on: arachidonic acid-induced inflammatory ear edema; details: mice
skin tumor formation = details: following initiation with a chemical challenge
[2] = biological target: cyclooxygenase-2 induction; details: TNFalpha-dependent induction; read-out: IC(50) for suppression of TNFalpha-dependent cyclooxygenase-2 induction

Row | IC50 [2] | SMILES | COX-2 specificity (COX-2 over COX-1) | inhibition of arachidonic acid-induced inflammatory ear edema [1] | inhibition of skin tumor formation (skin tumor formation)
1 | – | CC(=O)Oc1ccccc1C(=O)O [aspirin] | 0.6 | – | –
2 | ~30 nM | CC(C)=CCC1=C(O)[C@](O)(CC=C(C)C)C(=O)C(C(=O)CC(C)C)=C1O [humulon] | – | inhibited | inhibited skin tumor formation
